Measurements published in ChEMBL document CHEMBL1144260, “Hybridization dependent cleavage of internally modified disulfide-peptide nucleic acids” (Bioorg Med Chem Lett, 2005).

What was measured:
Assay type in all cases: functional
[1] = tested on: Nucleic Acid; test: Percentage of cleavage in single stranded peptide nucleic acid (PNA) DNA duplex was measured after treating with compound for 10 min; selectivity factor=0.6; PNA:DNA=5a:6
[2] = tested on: Nucleic Acid; test: Percentage of cleavage in single stranded peptide nucleic acid was measured after treating with compound for 10 min; selectivity factor=0.6; PNA:DNA=5a:6
[3] = tested on: Nucleic Acid; test: Percentage of cleavage in single stranded peptide nucleic acid (PNA) DNA duplex was measured after treating with compound for 0.5 min; selectivity factor=0.9; PNA:DNA=5a:6
[4] = tested on: Nucleic Acid; test: Percentage of cleavage in single stranded peptide nucleic acid was measured after treating with compound for 0.5 min; selectivity factor=0.9; PNA:DNA=5a:6
[5] = tested on: Nucleic Acid; test: Percentage of cleavage in single stranded peptide nucleic acid was measured after treating with compound for 300 min; selectivity factor=10.1; PNA:DNA=5b:7
[6] = tested on: Nucleic Acid; test: Percentage of cleavage in single stranded peptide nucleic acid (PNA) DNA duplex was measured after treating with compound for 300 min; selectivity factor=4.6; PNA:DNA=5a:6 (with NaCl 0.5 M)
[7] = tested on: Nucleic Acid; test: Percentage of cleavage in single stranded peptide nucleic acid was measured after treating with compound for 300 min; selectivity factor=2.8; PNA:DNA=5c:8a
[8] = tested on: Nucleic Acid; test: Percentage of cleavage in single stranded peptide nucleic acid (PNA)-DNA duplex was measured after treating with compound for 300 min; selectivity factor=10.1; PNA:DNA=5b:7
[9] = tested on: Nucleic Acid; test: Percentage of cleavage in single stranded peptide nucleic acid (PNA) DNA duplex was measured after treating with compound for 300 min; selectivity factor=23.8; PNA:DNA=5a:6
[10] = tested on: Nucleic Acid; test: Percentage of cleavage in single stranded peptide nucleic acid was measured after treating with compound for 300 min; selectivity factor=4.6; PNA:DNA=5a:6 (with NaCl 0.5 M)
[11] = tested on: Nucleic Acid; test: Percentage of cleavage in single stranded peptide nucleic acid was measured after treating with compound for 300 min; selectivity factor=23.8; PNA:DNA=5a:6
[12] = tested on: Nucleic Acid; test: Percentage of cleavage in single stranded peptide nucleic acid (PNA) DNA duplex was measured after treating with compound for 300 min; selectivity factor=2.8; PNA:DNA=5c:8a
[13] = tested on: Nucleic Acid; test: Percentage of cleavage in single stranded peptide nucleic acid was measured after treating with compound for 30 min; selectivity factor=10.2; PNA:DNA=5a:6
[14] = tested on: Nucleic Acid; test: Percentage of cleavage in single stranded peptide nucleic acid (PNA) DNA duplex was measured after treating with compound for 30 min; selectivity factor=10.2; PNA:DNA=5a:6
[15] = tested on: Nucleic Acid; test: Percentage of cleavage in single stranded peptide nucleic acid was measured after treating with compound for 30 min; selectivity factor=1.6; PNA:DNA=5a:6
[16] = tested on: Nucleic Acid; test: Percentage of cleavage in single stranded peptide nucleic acid (PNA) DNA duplex was measured after treating with compound for 30 min; selectivity factor=1.6; PNA:DNA=5a:6
[17] = tested on: Nucleic Acid; test: Percentage of cleavage in single stranded peptide nucleic acid (PNA) DNA duplex was measured after treating with compound for 30 min; selectivity factor=1; PNA:DNA=5a:6
[18] = tested on: Nucleic Acid; test: Percentage of cleavage in single stranded peptide nucleic acid was measured after treating with compound for 30 min; selectivity factor=1; PNA:DNA=5a:6
[19] = tested on: Nucleic Acid; test: Percentage of cleavage in single stranded peptide nucleic acid (PNA) DNA duplex was measured after treating with compound for 30 min; selectivity factor=0.7; PNA:DNA=5a:6
[20] = tested on: Nucleic Acid; test: Percentage of cleavage in single stranded peptide nucleic acid was measured after treating with compound for 30 min; selectivity factor=0.7; PNA:DNA=5a:6
[21] = tested on: Nucleic Acid; test: Percentage of cleavage in single stranded peptide nucleic acid was measured after treating with compound for 20 min; selectivity factor=17.3; PNA:DNA=5b:7
[22] = tested on: Nucleic Acid; test: Percentage of cleavage in single stranded peptide nucleic acid was measured after treating with compound for 20 min; selectivity factor=7.4; PNA:DNA=5b:7a
[23] = tested on: Nucleic Acid; test: Percentage of cleavage in single stranded peptide nucleic acid (PNA) DNA duplex was measured after treating with compound for 20 min; selectivity factor=22.2; PNA:DNA=5c:8b
[24] = tested on: Nucleic Acid; test: Percentage of cleavage in single stranded peptide nucleic acid was measured after treating with compound for 20 min; selectivity factor=2.9; PNA:DNA=5b:7b
[25] = tested on: Nucleic Acid; test: Percentage of cleavage in single stranded peptide nucleic acid was measured after treating with compound for 20 min; selectivity factor=22.2; PNA:DNA=5c:8b
[26] = tested on: Nucleic Acid; test: Percentage of cleavage in single stranded peptide nucleic acid (PNA) DNA duplex was measured after treating with compound for 20 min; selectivity factor=7.4; PNA:DNA=5b:7a
[27] = tested on: Nucleic Acid; test: Percentage of cleavage in single stranded peptide nucleic acid (PNA) DNA duplex was measured after treating with compound for 20 min; selectivity factor=2.9; PNA:DNA=5b:7b
[28] = tested on: Nucleic Acid; test: Percentage of cleavage in single stranded peptide nucleic acid (PNA) DNA duplex was measured after treating with compound for 2 min; selectivity factor>/=1; PNA:DNA=5a:6b
[29] = tested on: Nucleic Acid; test: Percentage of cleavage in single stranded peptide nucleic acid was measured after treating with compound for 2 min; selectivity factor>/=1; PNA:DNA=5a:6b
[30] = tested on: Nucleic Acid; test: Percentage of cleavage in single stranded peptide nucleic acid (PNA) DNA duplex was measured after treating with compound for 20 min; selectivity factor=57.1; PNA:DNA=5c:8
[31] = tested on: Nucleic Acid; test: Percentage of cleavage in single stranded peptide nucleic acid (PNA) DNA duplex was measured after treating with compound for 20 min; selectivity factor=25.7; PNA:DNA=5c:8a
[32] = tested on: Nucleic Acid; test: Percentage of cleavage in single stranded peptide nucleic acid was measured after treating with compound for 2 min; selectivity factor>1; PNA:DNA=5a:6
[33] = tested on: Nucleic Acid; test: Percentage of cleavage in single stranded peptide nucleic acid was measured after treating with compound for 20 min; selectivity factor=25.7; PNA:DNA=5c:8a
[34] = tested on: Nucleic Acid; test: Percentage of cleavage in single stranded peptide nucleic acid (PNA) DNA duplex was measured after treating with compound for 20 min; selectivity factor=17.3; PNA:DNA=5b:7
[35] = tested on: Nucleic Acid; test: Percentage of cleavage in single stranded peptide nucleic acid was measured after treating with compound for 20 min; selectivity factor=57.1; PNA:DNA=5c:8
[36] = tested on: Nucleic Acid; test: Percentage of cleavage in single stranded peptide nucleic acid (PNA) DNA duplex was measured after treating with compound for 2 min; selectivity factor>1; PNA:DNA= 5a:6
[37] = tested on: Nucleic Acid; test: Percentage of cleavage in single stranded peptide nucleic acid (PNA) DNA duplex was measured after treating with compound for 2 min; selectivity factor=1.5; PNA:DNA=5a:6
[38] = tested on: Nucleic Acid; test: Percentage of cleavage in single stranded peptide nucleic acid was measured after treating with compound for 2 min; selectivity factor=1.5; PNA:DNA=5a:6

NC(CS)C(=O)O (stereo not drawn)
Cleavage [1]: 28.4%
Cleavage [2]: 16.2%

CN(C)c1ccc(P(c2ccccc2)c2ccccc2)cc1
Cleavage [3]: 23%
Cleavage [4]: 19.5%

O=S(=O)(O)c1ccc(P(c2ccc(S(=O)(=O)O)cc2)c2ccc(S(=O)(=O)O)cc2)cc1
Cleavage [5]: 91.1%
Cleavage [6]: 21%
Cleavage [7]: 95.2%
Cleavage [8]: 9%
Cleavage [9]: 3.7%
Cleavage [10]: 97.6%
Cleavage [11]: 88.1%
Cleavage [12]: 34.6%

OCC(S)C(S)CO (stereo not drawn)
Cleavage [13]: 77.2%
Cleavage [14]: 7.6%

O=C(O)c1ccccc1P(c1ccccc1)c1ccccc1
Cleavage [15]: 69.1%
Cleavage [16]: 43.7%

O=C(O)c1ccc(P(c2ccccc2)c2ccccc2)cc1
Cleavage [17]: 88.6%
Cleavage [18]: 92.9%

O=C(O)CCS
Cleavage [19]: 78.9%
Cleavage [20]: 52.3%

O=C(O)CCP(CCC(=O)O)CCC(=O)O
Cleavage [21]: 31.2%
Cleavage [22]: 31.2%
Cleavage [23]: 4.4%
Cleavage [24]: 31.2%
Cleavage [25]: 97.6%
Cleavage [26]: 4.2%
Cleavage [27]: 10.8%
Cleavage [28]: 98.6%
Cleavage [29]: 100%
Cleavage [30]: 1.7%
Cleavage [31]: 3.8%
Cleavage [32]: 100%
Cleavage [33]: 97.6%
Cleavage [34]: 1.8%
Cleavage [35]: 97.6%
Cleavage [36]: 70.7%

NCCS
Cleavage [37]: 56.1%
Cleavage [38]: 86.8%
